Data on 33 compounds can be found in PubChem BioAssay (NCI).

Several values for one entry are separate records, joined by “and”; a condition that tells them apart may be missing. Equal values may be shown once.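 Cultured in 96-well plates, cells were exposed to test compound for 48 hours across five concentrations. GI50: concentration for 50% inhibition of growth. TGI: total growth inhibition.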

Common to all, as to test: inhibition of tumour cell growth, NCI panel, 48 h
Assay [1] deals with M19-MEL melanoma.
The test system of assay [2] is DMS 114 small cell lung.
Assay [3] deals with DLD-1 colon.
Assay [4] deals with DMS 273 small cell lung.
Assay [5] deals with LXFL 529 NSCLC.
The subject of assay [6] is HS 578T breast.
Assay [7] has as its system MDA-MB-231 breast.
Assay [8] concerns MDA-MB-435.
For assay [9], the system named is T-47D breast.
For assay [10], the system named is DU-145 prostate.

Take `COC(=O)C(=O)C(C(=O)C(=O)Nc1cccc(C(C)=O)c1)c1nc2ccccc2[nH]c1=O` (stereo unspecified): the TGI in [1], in assay [2], in [3], in assay [4] and in assay [5] was > 100 µM each time.

On to `COC(=O)C(CC(=O)Nc1ccc(C)cc1)C(=O)C(=O)Nc1ccccc1C(C)C` (stereo unspecified), for which the TGI in assay [1], in assay [2], in assay [3], in assay [4] and in assay [5] was > 100 µM each time.

Turning to `CCOP(=O)(OCC)OC(C#N)c1ccc(-c2ccccc2)cc1` (stereo unspecified), the TGI in [1] stood at 50.3 µM; in [2], 29.6 µM; in assay [3], 36.9 µM; in [4], 27.5 µM; in [5], 32 µM.

Consider `CC(=O)NC(CCCCNC(=O)NCCCl)C(=O)NCc1ccccc1` (stereo unspecified), for which the TGI in assay [1], in assay [2], in assay [3], in assay [4] and in [5] was > 100 µM throughout.

Turning to `OC1(c2ccccc2)OC(C#Cc2ccccc2)(c2ccccc2)c2ccccc21` (stereo unspecified), the TGI in assay [1] amounted to 11.1 µM; in [2] it was 9.01 µM; in [3], 11.2 µM; in assay [4] it was 12.1 µM; in assay [5], 19.2 µM.

In the case of `COC(=O)[C@]12CCC(C)[C@H](C)[C@H]1C1=CCC3[C@@]4(C)CC[C@H](OC(C)=O)C(C)(C)C4CC[C@@]3(C)C1(C)C(O)C2` (stereo partly specified), the TGI in [1], in [2], in assay [3], in assay [4] and in assay [5] was > 100 µM each time.

`O=[N+]([O-])c1cnn(C2=CNc3ccccc3N=C2)c1`: the TGI in assay [1], in assay [3] and in assay [4] was > 100 µM each time.

`CN(C)CC1CCC/C1=N\O` (stereo unspecified): the TGI in [1], in [3], in [4] and in [5] was > 100 µM in each case.

On to `COC1C2C=CC(C2)[C@H]1[N+](=O)[O-]` (stereo partly specified), for which the TGI in assay [1], in assay [2], in [3], in assay [4] and in [5] was > 100 µM each time.

In the case of `Cc1ccc(-c2cc(-c3ccccc3)c(C#N)c(=O)n2C2OC(CO)C(O)C(O)C2O)cc1` (stereo unspecified), the TGI in assay [1], in assay [2], in [3], in assay [4] and in assay [5] was > 100 µM in each case.

Take `CCC1=NC(CO)[C@H](c2ccccc2)O1` (stereo partly specified): the TGI in assay [1], in assay [2], in assay [3] and in assay [4] was > 100 µM throughout.

With `CN1CC[C@]2(C)c3ccc(O)cc3CC3CCCC1C32C` (stereo partly specified), the TGI in [1], in assay [2], in assay [3] and in [5] was > 100 µM throughout.

On to `CC1=C(C(=O)Nc2cccc(Cl)c2)C(c2ccccc2F)C(C(=O)Nc2cccc(Cl)c2)=C(C)N1`, for which the TGI in assay [1] was found to be 26.4 µM; in assay [2] it was 30.6 µM; in [3] it was 28.8 µM; in assay [4] it was 26.4 µM; in assay [5], 23.4 µM.

In the case of `CCOC(=O)/C=C1\CCCC12OCCO2`, the TGI in [1], in assay [2], in assay [3], in assay [4] and in assay [5] was > 100 µM throughout.

For the compound `Cc1ccc(-c2cc(-c3ccco3)c(C#N)c(=O)n2C2OC(OC(=O)c3ccccc3)C(OC(=O)c3ccccc3)C2OC(=O)c2ccccc2)cc1` (stereo unspecified), the TGI in assay [1], in assay [2], in [3], in [4] and in [5] was > 100 µM in each case.

For the compound `NCCCCNc1ccc2c(=O)[nH][nH]c(=O)c2c1`, the TGI in assay [1], in assay [2], in assay [3], in assay [4] and in assay [5] was > 100 µM each time.

Take `NC(=S)NNc1c([N+](=O)[O-])cnn(-c2ccccc2)c1=O`: the TGI in assay [1] worked out at 26.5 µM; in [2], 33.2 µM; in assay [3] it was 28.5 µM; in assay [4], 33.8 µM; in [5], 21.1 µM.

On to `CS(=O)(=O)CSCSSCS(C)(=O)=O`, for which the TGI is > 100 µM in [1]; > 92.1 µM in assay [2]; > 75.4 µM in [3]; > 81.3 µM in assay [4]; 42.5 µM in assay [5].

`CC(=O)OCC(OC(C)=O)C(OC(C)=O)C(OC(C)=O)C(=O)CNn1c(-c2ccccc2Cl)nc2ccccc2c1=O` (stereo unspecified): the TGI in [1], in [2], in assay [4] and in assay [5] was > 100 µM in each case.

`Cc1cccc(C)c1NC(=O)C1C(=O)N(c2c(C)cccc2C)C(=O)/C1=N\NC(N)=S` (stereo unspecified): the TGI in [1], in [2], in assay [3] and in [5] was > 100 µM in each case.

In the case of `CCCCN(CCCC)c1c([N+](=O)[O-])c(=O)nc2ccccn12`, the TGI in [1] was > 100 µM; in assay [2], 49.6 µM; in assay [3] it was > 100 µM; in assay [5], > 100 µM.

In the case of `C[C@]12CCCC(=O)C1(O)C[C@H](C(=O)O)CC2` (stereo partly specified), the TGI in [1], in [2], in [3], in assay [4] and in [5] was > 100 µM throughout.

For the compound `COc1ccc(N2C(=O)[C@H]3CC(C)c4c([nH]c5ccccc45)[C@H]3C2=O)cc1` (stereo partly specified), the TGI in assay [1] is 55.5 µM; in assay [6], 33.4 µM; in [7] it was > 54.8 µM; in assay [8], 2.3 µM; in assay [2], 7.32 µM; in assay [3], > 41.5 µM. Also, the TGI in assay [4] was 17.2 µM; in assay [9], 68.8 µM; in [10] it was > 45.8 µM; in assay [5], 26.8 µM.

For `C/C=C1\NC(=O)[C@H]2CSSCCC=C[C@H](CC(=O)N[C@H](C(C)C)C(=O)N2)OC(=O)[C@H](C(C)C)NC1=O`, the TGI in [1] is 0.0564 µM and 0.065 µM; in [6] it was 0.0439 µM; in assay [8] it was < 0.0134 µM and 0.0207 µM and 0.125 µM; in assay [2] it was 0.00885 µM; in assay [3], 0.289 µM; in assay [4] it was 0.0102 µM. Besides, the TGI in assay [9] is < 0.01 µM and 0.0103 µM; in assay [10] it was 0.226 µM and 0.0645 µM and 0.199 µM. Moreover, the GI50 is < 0.01 µM in assay [6]; < 0.01 µM in assay [7]; < 0.01 µM in assay [8]; 0.0102 µM in assay [3]; < 0.01 µM in [9]; < 0.01 µM in assay [10].

For the compound `Cc1cc(C)c(C(=O)c2no[n+]([O-])c2C(=O)c2c(C)cc(C)c(Br)c2C)c(C)c1Br`, the TGI came to 25.7 µM in assay [1]; 23.4 µM in assay [2]; 30.7 µM in assay [3]; 45.1 µM in assay [4]; 23.7 µM in assay [5].

As for `N.N.N.N.O=C([O-])C(Cl)Cl.O=C([O-])C(Cl)Cl.[Co+3].[O-][Cl+3]([O-])([O-])[O-]`, the GI50 in assay [3], in assay [4] and in [5] was > 100 µM in each case. The TGI in assay [3], in assay [4] and in assay [5] was > 100 µM each time.

As to `CC[C@]1(O)C(=O)OCc2c1cc1n(c2=O)Cc2cc3c(N)cccc3nc2-1`, the TGI in assay [1], in [2], in [3], in assay [4] and in assay [5] was > 100 µM throughout.

Take `CCOC(=O)c1s/c(=N\Nc2nc3ccccc3cc2C2OCCO2)n(Cc2ccccc2)c1C`: the TGI in [1], in assay [2], in assay [3], in [4] and in assay [5] was > 100 µM throughout.

As for `N#CCCN(CCC#N)c1ccc(C(Sc2ccccc2)C(NC(=O)c2cc([N+](=O)[O-])ccc2Cl)C(=O)Sc2ccccc2)cc1` (stereo unspecified), the GI50 was 2.95 µM in assay [1], 1.34 µM in assay [2], 1.8 µM in assay [3] and 1.63 µM in assay [5]. Further, the TGI in assay [1] was 11.9 µM; in [2] it was 7.78 µM and 4.1 µM; in assay [3] it was 9.43 µM and 4.58 µM; in assay [4] it was 5.15 µM; in assay [5], 11.9 µM.

In the case of `Cc1ccccc1C1=C(C(=O)Nc2ccc(Cl)c(Cl)c2)NC(=S)NC1N` (stereo unspecified), the TGI in [1], in [2], in [3], in assay [4] and in assay [5] was > 100 µM each time.

On to `COC(=O)c1ccccc1NC(=O)C(=O)NNC(=O)c1ccncc1`, for which the TGI in assay [1], in assay [2], in [3], in assay [4] and in assay [5] was > 100 µM throughout.

In the case of `COc1ccc(/C=C\c2cc(OC)c(O[Si](C)(C)C(C)(C)C)c(OC)c2)cc1`, the TGI in assay [1] was > 100 µM; in assay [2] it was 91.4 µM; in [3] it was > 100 µM; in assay [4], > 100 µM; in [5], > 100 µM.

In the case of `O=C(c1ccncc1)n1nc(-c2ccccc2)c(N=Nc2ccccc2[N+](=O)[O-])c1-c1ccccc1`, the TGI in [1], in [2], in [3], in assay [4] and in [5] was > 100 µM throughout.
